In brackets after ≈: the same amount, converted by molar mass.
What was measured:
[1] = Drug metabolism in bile of fistula Wistar-Han rat model assessed as taurine conjugate formation at 60 umol/kg, iv by HPLC-ES-MS/MS analysis; type: ADME, organism-based; conditions: in vivo, dose 60 µmol/kg
physchem = conditions: water
[2] = Stability in bile of fistula Wistar-Han rat model assessed as drug recovery of unmodified compound at 60 umol/kg, iv by HPLC-ES-MS/MS analysis; type: ADME, organism-based; conditions: at 60 µmol/kg, read-out: Drug recovery
[3] = Drug metabolism in liver of fistula Wistar-Han rat model assessed as drug recovery of taurine conjugate at 60 umol/kg, iv by HPLC-ES-MS/MS analysis; type: ADME, organism-based; conditions: in vivo, dose 60 µmol/kg
[4] = Stability in fistula Wistar-Han rat model assessed as drug stability in intestinal bacteria at 60 umol/kg, iv by HPLC-ES-MS/MS analysis; type: ADME, organism-based, Intestine; conditions: in vivo, at 60 µmol/kg

SMILES | Drug metabolism [1] | solubility (physchem) [µM] | dose excreted [2] [%] | Drug metabolism [3] | Stabilty [4]
CC[C@H]1[C@@H](O)[C@@H]2[C@H](CC[C@]3(C)[C@@H]([C@H](C)CCC(=O)O)CC[C@@H]23)[C@@]2(C)CC[C@@H](O)C[C@@H]12 [OBETICHOLIC ACID] | Metabolite_Detected | 9 (≈ 3.79 µg/mL) |  |  | 
C[C@H](CCC(=O)O)[C@H]1CC[C@H]2[C@@H]3[C@@H](O)C[C@@H]4C[C@H](O)CC[C@]4(C)[C@H]3CC[C@]12C [URSODIOL] | Metabolite_Detected | 7 (≈ 2.75 µg/mL) |  |  | 
C[C@H](CCC(=O)O)[C@H]1CC[C@H]2[C@@H]3[C@H](O)C[C@@H]4C[C@H](O)CC[C@]4(C)[C@H]3C[C@H](O)[C@]12C [CHOLIC ACID] |  |  | 10 |  | 
CC[C@H]1[C@@H](O)[C@@H]2[C@H]([C@@H](O)C[C@]3(C)[C@@H]([C@H](C)CCC(=O)O)CC[C@@H]23)[C@@]2(C)CC[C@@H](O)C[C@@H]12 |  | 150 (≈ 65.5 µg/mL) | 50 | Metabolite_Notdetected | Stable
C[C@H](CCC(=O)O)[C@H]1CC[C@H]2[C@@H]3[C@H](O)C[C@@H]4C[C@H](O)CC[C@]4(C)[C@H]3CC[C@]12C [CHENODIOL] | Metabolite_Detected |  |  |  | 

From ChEMBL document CHEMBL4680080 (J Med Chem, 2016)
